Data reported in paper PMC4512978, “Synthesis and evaluation in rats of homologous series of [^18F]-labeled dopamine D2/3 receptor agonists based on the 2-aminomethylchroman scaffold as potential PET tracers” (EJNMMI Research, 2015).
Like-named read-outs stand apart in the source and are kept apart here.

Key:
[1] = Ex vivo tissue uptake after the PET scan (gamma-counter); assay type: in vivo, Sprague-Dawley rats
Procedure: After the end of the PET scans (i.e., 98 ± 8 min after tracer injection), anesthetized animals were sacrificed by heart extirpation and dissected. Samples of brain and peripheral tissues were taken. All samples were weighed, and their radioactivity was measured in a gamma-counter.

D2/3R = test system: D2/3R; set-up: method as in PMID 24325578; conditions: cited from earlier work; for Striatal SBR % change relative to control condition, Raclopride / Striatal SBR, Raclopride: 10 μM raclopride; for Striatal SBR % change relative to control condition, GTP / Striatal SBR, GTP: 100 μM GTP; for Striatal SBR, Control: radioligand only
[2] = raclopride 1 mg/kg, after PET scan
[3] = saline, after PET scan (98 ± 8 min p.i.)
[4] = [^18F]FBu-AMC13 0.2 nM, [^18F]FEt-AMC15 5.8 ± 1.6 nM

## Oc1ccc2c(c1)O[C@@H](CNCCN1CCN(c3ccc(OCC[18F])cc3)CC1)CC2 [[^18F]FEt-AMC15, (R) 1-(4-(2-[^18F]fluoroethoxy)phenyl)-4-(4-(7-hydroxychroman-2-yl)-3-azabutyl)-piperazine]
[1]; RAC
  Ex vivo uptake, Adipose tissue: 0.10±0.05 SUV
  Ex vivo uptake, Adrenal glands: 1.73±1.07 SUV
  Ex vivo uptake, Bladder: 0.69±0.30 SUV
  Ex vivo uptake, Blood cells: 0.05±0.04 SUV
  Ex vivo uptake, Bone: 0.12±0.08 SUV
  Ex vivo uptake, Bone marrow: 0.91±0.53 SUV
  Ex vivo uptake, Caecum: 0.91±1.10 SUV
  Ex vivo uptake, Duodenum: 22.8±36.6 SUV
  Ex vivo uptake, Heart: 0.15±0.10 SUV
  Ex vivo uptake, Kidney: 0.61±0.51 SUV
  Ex vivo uptake, Large intestine: 1.20±1.48 SUV
  Ex vivo uptake, Large intestine content: 0.06±0.04 SUV
  Ex vivo uptake, Liver: 1.47±1.56 SUV
  Ex vivo uptake, Lung: 1.19±0.40 SUV
  Ex vivo uptake, Muscle: 0.15±0.11 SUV
  Ex vivo uptake, Pancreas: 0.92±0.77 SUV
  Ex vivo uptake, Plasma: 0.07±0.02 SUV
  Ex vivo uptake, Prostate: 0.42±0.10 SUV
  Ex vivo uptake, Small intestine: 11.1±18.4 SUV
  Ex vivo uptake, Small intestine content: 60.5±104 SUV
  Ex vivo uptake, Spleen: 1.62±1.15 SUV
  Ex vivo uptake, Stomach: 1.73±0.75 SUV
  Ex vivo uptake, Submandibular gland: 1.41±0.34 SUV
  Ex vivo uptake, Testes: 0.04±0.01 SUV
  Ex vivo uptake, Thymus: 0.43±0.15 SUV
  Ex vivo uptake, Urine: 2.32±3.35 SUV
  Ex vivo uptake, Whole blood: 0.12±0.08 SUV
[1]; SAL
  Ex vivo uptake, Adipose tissue: 0.18±0.09 SUV
  Ex vivo uptake, Adrenal glands: 1.53±0.58 SUV
  Ex vivo uptake, Bladder: 0.23±0.05 SUV
  Ex vivo uptake, Blood cells: 0.05±0.04 SUV
  Ex vivo uptake, Bone: 0.14±0.03 SUV
  Ex vivo uptake, Bone marrow: 0.98±0.36 SUV
  Ex vivo uptake, Caecum: 0.15±0.10 SUV
  Ex vivo uptake, Duodenum: 1.92±0.35 SUV
  Ex vivo uptake, Heart: 0.11±0.04 SUV
  Ex vivo uptake, Kidney: 0.40±0.10 SUV
  Ex vivo uptake, Large intestine: 0.15±0.07 SUV
  Ex vivo uptake, Large intestine content: 0.02±0.01 SUV
  Ex vivo uptake, Liver: 0.86±0.23 SUV
  Ex vivo uptake, Lung: 1.18±0.16 SUV
  Ex vivo uptake, Muscle: 0.07±0.04 SUV
  Ex vivo uptake, Pancreas: 0.75±0.27 SUV
  Ex vivo uptake, Plasma: 0.14±0.11 SUV
  Ex vivo uptake, Prostate: 0.38±0.15 SUV
  Ex vivo uptake, Small intestine: 0.18±0.07 SUV
  Ex vivo uptake, Small intestine content: 0.56±0.24 SUV
  Ex vivo uptake, Spleen: 1.52±0.68 SUV
  Ex vivo uptake, Stomach: 1.79±0.92 SUV
  Ex vivo uptake, Submandibular gland: 1.51±0.26 SUV
  Ex vivo uptake, Testes: 0.04±0.01 SUV
  Ex vivo uptake, Thymus: 0.49±0.09 SUV
  Ex vivo uptake, Urine: 0.69±0.33 SUV
  Ex vivo uptake, Whole blood: 0.06±0.03 SUV
[1]; [2]
  Ex vivo uptake, Brainstem: 0.03 ± 0.01 SUV
  Ex vivo uptake, Cerebellum: 0.03 ± 0.01 SUV
  Ex vivo uptake, Cortex: 0.03 ± 0.01 SUV
  Ex vivo uptake, Hippocampus: 0.03 ± 0.01 SUV
  Ex vivo uptake, Mean brain uptake: 0.03 ± 0.01 SUV
  Ex vivo uptake, Olfactory bulbs: 0.03 ± 0.02 SUV
  Ex vivo uptake, Parietal bone: 0.08 ± 0.03 SUV
  Ex vivo uptake, Pituitary: 1.08 ± 0.27 SUV
  Ex vivo uptake, Rest of brain: 0.03 ± 0.02 SUV
  Ex vivo uptake, Striatum: 0.03 ± 0.01 SUV
  Ex vivo uptake, Thalamus + hypothalamus: 0.03 ± 0.01 SUV
[1]; saline, after PET scan
  Ex vivo uptake, Brainstem: 0.03 ± 0.004 SUV
  Ex vivo uptake, Cerebellum: 0.03 ± 0.01 SUV
  Ex vivo uptake, Cortex: 0.03 ± 0.003 SUV
  Ex vivo uptake, Hippocampus: 0.03 ± 0.02 SUV
  Ex vivo uptake, Mean brain uptake: 0.03 ± 0.01 SUV
  Ex vivo uptake, Olfactory bulbs: 0.03 ± 0.001 SUV
  Ex vivo uptake, Parietal bone: 0.09 ± 0.03 SUV
  Ex vivo uptake, Pituitary: 1.36 ± 0.30 SUV
  Ex vivo uptake, Rest of brain: 0.02 ± 0.02 SUV
  Ex vivo uptake, Thalamus + hypothalamus: 0.03 ± 0.01 SUV
[1]; [3]
  Ex vivo uptake, Striatum: 0.02 ± 0.02 SUV
D2/3R; [4]
  Striatal SBR % change relative to control condition, Raclopride: −60%
  Striatal SBR, Raclopride: 0.65 ± 0.37
  Striatal SBR % change relative to control condition, GTP: −59%
  Striatal SBR, GTP: 0.67 ± 0.28
  Striatal SBR, Control: 1.64 ± 1.04

## Oc1ccc2c(c1)O[C@@H](CNCc1ccc(OCCCC[18F])cc1)CC2 [[^18F]FBu-AMC13, (R)-2-[(4-(4-[^18F]fluorobutoxy)benzylamino)methyl]chroman-7-ol]
[1]; RAC
  Ex vivo uptake, Adrenal glands: 32.1±3.6 SUV
  Ex vivo uptake, Bladder: 0.59±0.26 SUV
  Ex vivo uptake, Bone: 0.77±0.46 SUV
  Ex vivo uptake, Bone marrow: 2.18±0.09 SUV
  Ex vivo uptake, Duodenum: 2.70±1.37 SUV
  Ex vivo uptake, Heart: 0.36±0.03 SUV
  Ex vivo uptake, Kidney: 2.36±0.54 SUV
  Ex vivo uptake, Large intestine: 0.46±0.19 SUV
  Ex vivo uptake, Liver: 1.99±0.86 SUV
  Ex vivo uptake, Lung: 4.26±1.02 SUV
  Ex vivo uptake, Muscle: 0.27±0.02 SUV
  Ex vivo uptake, Pancreas: 3.54±0.64 SUV
  Ex vivo uptake, Plasma: 0.16±0.03 SUV
  Ex vivo uptake, Prostate: 1.27±0.40 SUV
  Ex vivo uptake, Small intestine: 3.21±3.67 SUV
  Ex vivo uptake, Small intestine content: 11.0±11.4 SUV
  Ex vivo uptake, Spleen: 2.14±0.20 SUV
  Ex vivo uptake, Stomach: 2.19±0.67 SUV
  Ex vivo uptake, Submandibular gland: 2.12±0.85 SUV
  Ex vivo uptake, Thymus: 1.54±0.12 SUV
  Ex vivo uptake, Urine: 1.51±0.95 SUV
[1]; SAL
  Ex vivo uptake, Adrenal glands: 34.5±3.5 SUV
  Ex vivo uptake, Bladder: 0.43±0.16 SUV
  Ex vivo uptake, Bone: 0.73±0.47 SUV
  Ex vivo uptake, Bone marrow: 2.31±1.19 SUV
  Ex vivo uptake, Duodenum: 3.24±1.2 SUV
  Ex vivo uptake, Heart: 0.50±0.25 SUV
  Ex vivo uptake, Kidney: 3.24±0.69 SUV
  Ex vivo uptake, Large intestine: 0.60±0.13 SUV
  Ex vivo uptake, Liver: 1.49±0.15 SUV
  Ex vivo uptake, Lung: 4.85±2.15 SUV
  Ex vivo uptake, Muscle: 0.33±0.13 SUV
  Ex vivo uptake, Pancreas: 3.78±0.41 SUV
  Ex vivo uptake, Plasma: 0.15±0.02 SUV
  Ex vivo uptake, Prostate: 0.95±0.17 SUV
  Ex vivo uptake, Small intestine: 4.52±5.94 SUV
  Ex vivo uptake, Small intestine content: 20.9±31.4 SUV
  Ex vivo uptake, Spleen: 2.48±1.27 SUV
  Ex vivo uptake, Stomach: 1.90±0.26 SUV
  Ex vivo uptake, Submandibular gland: 2.01±0.53 SUV
  Ex vivo uptake, Thymus: 2.04±0.27 SUV
  Ex vivo uptake, Urine: 0.63±0.53 SUV
[1]; [2]
  Ex vivo uptake, Brainstem: 1.25 ± 0.14 SUV
  Ex vivo uptake, Cerebellum: 0.73 ± 0.08 SUV
  Ex vivo uptake, Cortex: 1.01 ± 0.11 SUV
  Ex vivo uptake, Hippocampus: 1.21 ± 0.06 SUV
  Ex vivo uptake, Mean brain uptake: 1.03 ± 0.11 SUV
  Ex vivo uptake, Olfactory bulbs: 0.86 ± 0.09 SUV
  Ex vivo uptake, Parietal bone: 0.70 ± 0.18 SUV
  Ex vivo uptake, Pituitary: 2.72 ± 0.77 SUV
  Ex vivo uptake, Rest of brain: 1.10 ± 0.17 SUV
  Ex vivo uptake, Striatum: 1.21 ± 0.14 SUV
  Ex vivo uptake, Thalamus + hypothalamus: 1.07 ± 0.10 SUV
[1]; saline, after PET scan
  Ex vivo uptake, Brainstem: 1.97 ± 0.42 (2) SUV
  Ex vivo uptake, Cerebellum: 1.11 ± 0.29 (8) SUV
  Ex vivo uptake, Cortex: 1.50 ± 0.32 (7) SUV
  Ex vivo uptake, Hippocampus: 1.50 ± 0.25 (6) SUV
  Ex vivo uptake, Mean brain uptake: 1.56 ± 0.33 SUV
  Ex vivo uptake, Olfactory bulbs: 1.85 ± 0.64 (3) SUV
  Ex vivo uptake, Parietal bone: 0.61 ± 0.17 SUV
  Ex vivo uptake, Pituitary: 3.19 ± 0.29 SUV
  Ex vivo uptake, Rest of brain: 1.60 ± 0.25 (4) SUV
  Ex vivo uptake, Thalamus + hypothalamus: 2.07 ± 0.70 (1) SUV
[1]; [3]
  Ex vivo uptake, Striatum: 1.60 ± 0.33 (5) SUV
D2/3R; [4]
  Striatal SBR % change relative to control condition, Raclopride: −88%
  Striatal SBR, Raclopride: 0.10 ± 0.19
  Striatal SBR % change relative to control condition, GTP: −76%
  Striatal SBR, GTP: 0.20 ± 0.16
  Striatal SBR, Control: 0.85 ± 0.23
D2/3R; tracer 4.5 ± 3.6 nM
  Striatal SBR % change relative to control condition, Raclopride: −79%
  Striatal SBR, Raclopride: 0.04 ± 0.22
  Striatal SBR, Control: 0.19 ± 0.18
